Experimental data: PMC10523091, “Stereo/regio-selective access to substituted 3-hydroxy-oxindoles with anti-proliferative assessment and in silico validation” (RSC Advances, 2023)
Where two headings read alike, the source gives them in different places.

How the values were obtained:
OVCAR 10 = assay: MTS cell viability assay, OVCAR 10; type: cell-based; settings: for SI OVCAR10: SI = (IC50 for normal cell line FHC)/(IC50 for OVCAR10)
Description: (§1) The newly synthesized compounds were subjected to assessment for their potential to inhibit the proliferation of various cancer cell lines including colorectal carcinoma (HCT116), ovarian cancer (OVCAR 10), and human metastatic melanoma (1205Lu), and non-cancerous fetal human cells (FHC). […] In order to ascertain whether compound 4j is selectively cytotoxic or anti-proliferative to cancer cells, it was tested for non-cancerous fetal human cells (FHC).
(§2) HCT116, OVCAR 10, 1205Lu, and FHC cell lines were procured from American Type Culture Collection (ATCC, Manassas, VA, USA). All the cells were grown based on the recommendations by ATCC at 37 °C in a humidified atmosphere with CO2. Stock solutions of compounds were made up and delivered to cells in DMSO.
(§3) The cell viability assay was performed as described earlier[27] HCT116, OVCAR 10, 1205Lu, and FHC adherent cell lines were seeded in 96-well plate at a density of 5 × 10^3 cells per well. Next day, the cells were treated with the respective compounds at different doses for 48 h in triplicates. At the end of the treatment duration, the media were removed and fresh media were added containing 20 μL of [3-(4,5-dimethylthiazol-2-yl)-5-(3-carboxymethoxyphenyl)-2-(4-sulfophenyl)-2H-tetrazolium] (MTS) reagent per well (Promega, WI, USA). The optical densities of the solubilized formazan crystals were read with a 96-well multi-scanner (Dynex Technologies, MRX Revelation; Chantilly, VA, USA) at 490 nm and 630 nm, and the normalized percent viability was calculated. The IC50 values were calculated using non-linear regression (curve fit).

FHC = assay: MTS cell viability assay, non-cancerous FHC; type: cell-based; settings: 48 h treatment, non-cancerous fetal human cells, read-out: IC50 (μM) ± SD FHC
Description: as §1, §2, §3

1205Lu = assay: MTS cell viability assay, 1205Lu; type: cell-based, human; settings: for SI 1205Lu: SI = (IC50 for normal cell line FHC)/(IC50 for 1205Lu)
Description: as §1, §2, §3

HCT116 = assay: MTS cell viability assay, HCT116; type: cell-based; settings: for SI HCT116: SI = (IC50 for normal cell line FHC)/(IC50 for HCT116)
Description: as §1, §2, §3

HCT-116 cells [1] = assay: Annexin V/7-AAD apoptosis assay; type: cell-based; settings: 10 μM
Description: (§4) We further carried out apoptosis experiments utilizing the caspase-3/7 7-AAD and Annexin V/7-AAD assays to evaluate the mode of cell death.
(§5) The apoptosis assay using Muse Annexin V/7-AAD and Caspase 3/7 7-AAD assay kit (EMD Millipore, Darmstadt, Germany) was performed following manufacturer's protocol as described earlier.[28] Briefly, the cells were seeded in 6-well plate at a density of 1 × 10^5 cells per well. After 24 h incubation, the cells were treated with 10 μM of compound 4j. The cells were incubated for 24 and 48 h. At the end of the treatment period, the cells were harvested using enzyme free cell dissociation buffer. The samples were treated with the respective dyes based on the manufacturer's protocol. The samples were further analysed in Muse Cell Analyzer (Merck Millipore, Darmstadt, Germany).

HCT-116 cells [2] = assay: Caspase 3/7 7-AAD apoptosis assay; type: cell-based; settings: 10 μM
Description: as §4, §5

[3] = MTS assay, 48 h treatment, ovarian cancer, read-out: IC50 (μM) ± SD OVCAR 10
[4] = 1205Lu, MTS assay, 48 h treatment, human metastatic melanoma, read-out: IC50 (μM) ± SD 1205Lu
[5] = Homo sapiens, HCT-116, MTS assay, 48 h treatment, colorectal carcinoma, read-out: IC50 (μM) ± SD HCT116
[6] = repeated in docking table, unit inferred, read-out: IC50 OVCAR10
[7] = Homo sapiens, 1205Lu, repeated in docking table, unit inferred, read-out: IC50 1205Lu
[8] = Homo sapiens, HCT-116, repeated in docking table, unit inferred, read-out: IC50 HCT116

Structure (SMILES)	IC50 (OVCAR 10; [3])	IC50 (FHC; FHC)	IC50 (1205Lu; [4])	IC50 (HCT116; [5])	melting point	also measured
N.N.[Cl][Pt][Cl] [Cisplatin, cisplatin, reference compound]	18.2 ± 2.5 µM	–	–	–	–	SI OVCAR10 (OVCAR 10): 1.37; IC50 (FHC): 25.1 ± 3.2 µM; IC50 (1205Lu; MTS assay, 48 h treatment, human metastatic melanoma, read-out: IC50 (μM) ± SD 1205Lu): 19 ± 1.5 µM; SI 1205Lu (1205Lu): 1.3; IC50 (HCT116; MTS assay, 48 h treatment, colorectal carcinoma, read-out: IC50 (μM) ± SD HCT116): 12.1 ± 2.5 µM; SI HCT116 (HCT116): 2.07
O=C1N(Cc2ccccc2)c2ccccc2C1(O)CN1CCOCC1 (stereo not shown) [Compound 4a, 1-Benzyl-3-hydroxy-3-(morpholinomethyl)indolin-2-one]	120 ± 15.4 µM	122 ± 13.2 µM	111 ± 18.9 µM	104 ± 25 µM	–	–
O=C1N(Cc2ccccc2)c2ccccc2C1(O)CN1CCCCC1 (stereo not shown) [Compound 4b, 1-Benzyl-3-hydroxy-3-(piperidin-1-ylmethyl)indolin-2-one]	69.2 ± 16.2 µM	63.5 ± 22.2 µM	65.3 ± 15.3 µM	85.2 ± 15.3 µM	–	–
O=C1N(Cc2ccccc2)c2ccccc2C1(O)CN1CCCC1 (stereo not shown) [Compound 4c, 1-Benzyl-3-hydroxy-3-(pyrrolidin-1-ylmethyl)indolin-2-one]	61.2 ± 13.2 µM	76.3 ± 14.5 µM	78.2 ± 24 µM	65.9 ± 16.7 µM	169 to 171 °C	–
O=C1N(Cc2ccccc2)c2ccc(Br)cc2C1(O)CN1CCOCC1 (stereo not shown) [Compound 4d, 1-Benzyl-5-bromo-3-hydroxy-3-(morpholinomethyl)indolin-2-one]	87.9 ± 13 µM	73.2 ± 19.6 µM	81.2 ± 15.1 µM	84.1 ± 19.4 µM	–	–
O=C1N(Cc2ccccc2)c2ccc(Br)cc2C1(O)CN1CCCCC1 (stereo not shown) [Compound 4e, 1-Benzyl-5-bromo-3-hydroxy-3-(piperidin-1-ylmethyl)indolin-2-one]	93.1 ± 15.6 µM	88.3 ± 16.9 µM	98 ± 13.2 µM	92.2 ± 17.2 µM	189 to 191 °C	–
O=C1N(Cc2ccccc2)c2ccc(Br)cc2C1(O)CN1CCCC1 (stereo not shown) [Compound 4f, 1-Benzyl-5-bromo-3-hydroxy-3-(pyrrolidin-1-ylmethyl)indolin-2-one]	88.5 ± 18.9 µM	81.3 ± 15.6 µM	85.6 ± 13.2 µM	85.3 ± 16 µM	144 to 146 °C	–
O=C1N(Cc2ccccc2)c2ccc(Cl)cc2C1(O)CN1CCOCC1 (stereo not shown) [Compound 4g, 1-Benzyl-5-chloro-3-hydroxy-3-(morpholinomethyl)indolin-2-one]	112 ± 11.7 µM	121 ± 21.2 µM	125 ± 19.8 µM	121 ± 17.1 µM	191 to 193 °C	–
O=C1N(Cc2ccccc2)c2ccc(Cl)cc2C1(O)CN1CCCCC1 (stereo not shown) [Compound 4h]	130 ± 17.2 µM	106 ± 17.2 µM	110 ± 18.4 µM	117 ± 19.6 µM	–	–
O=C1N(Cc2ccccc2)c2ccc(Cl)cc2C1(O)CN1CCCC1 (stereo not shown) [Compound 4i, 1-Benzyl-5-chloro-3-hydroxy-3-(pyrrolidin-1-ylmethyl)indolin-2-one]	81.5 ± 12.5 µM	96.5 ± 22.2 µM	96.4 ± 18.8 µM	93.4 ± 19.3 µM	121 to 124 °C	–
O=C1N(Cc2ccccc2)c2c(Br)cc(Br)cc2C1(O)CN1CCOCC1 (stereo not shown) [Compound 4j, 1-Benzyl-5,7-dibromo-3-hydroxy-3-(morpholinomethyl)indolin-2-one]	8.56 ± 1.1 µM	20.6 ± 3.1 µM	12.2 ± 1.7 µM	9.63 ± 1.3 µM	–	apoptotic cells, Annexin V/7-AAD (HCT-116 cells [1]; 24 h): 19.5%; apoptotic cells, Annexin V/7-AAD (HCT-116 cells [1]; 48 h): 46.15%; SI OVCAR10 (OVCAR 10): 2.40; IC50 (OVCAR 10; [6]): 8.56 µM; IC50 (1205Lu; [7]): 12.2 µM; SI 1205Lu (1205Lu): 1.68; apoptotic cell population, Caspase 3/7 7-AAD (HCT-116 cells [2]; 24 h): 21.5%; apoptotic cell population, Caspase 3/7 7-AAD (HCT-116 cells [2]; 48 h): 57.9%; IC50 (HCT116; [8]): 9.63 µM; SI HCT116 (HCT116): 2.12
O=C1N(Cc2ccccc2)c2c(Br)cc(Br)cc2C1(O)CN1CCCCC1 (stereo not shown) [Compound 4k, 1-Benzyl-5,7-dibromo-3-hydroxy-3-(piperidin-1ylmethyl)indolin-2-one]	91.2 ± 18.7 µM	88.6 ± 20.3 µM	89.9 ± 16.8 µM	110 ± 24.4 µM	170 to 172 °C	IC50 (OVCAR 10; [6]): 91.2 µM; IC50 (1205Lu; [7]): 89.9 µM; IC50 (HCT116; [8]): 110 µM
O=C1N(Cc2ccccc2)c2c(Br)cc(Br)cc2C1(O)CN1CCCC1 (stereo not shown) [Compound 4l]	94.3 ± 18 µM	94.8 ± 15.3 µM	91.6 ± 18.3 µM	91.5 ± 26.9 µM	–	–
O=C1Nc2ccccc2C1(O)CN1CCOCC1 (stereo not shown) [Compound 4m, 3-Hydroxy-3-(morpholinomethyl)indolin-2-one]	92.3 ± 18.2 µM	89.4 ± 14.6 µM	99.7 ± 11.5 µM	95.4 ± 9.66 µM	–	–
O=C1Nc2ccccc2C1(O)CN1CCCCC1 (stereo not shown) [Compound 4n, 3-Hydroxy-3-(piperidin-1-ylmethyl)indolin-2-one]	112 ± 21.3 µM	96.8 ± 18.5 µM	109 ± 24.7 µM	105 ± 23.3 µM	154 to 156 °C	–
O=C1Nc2ccccc2C1(O)CN1CCCC1 (stereo not shown) [Compound 4o, 3-Hydroxy-3-(pyrrolidin-1-ylmethyl)indolin-2-one]	116 ± 11.8 µM	95.7 ± 13 µM	130 ± 14 µM	102 ± 18.7 µM	–	–
O=c1[nH]cc(F)c(=O)[nH]1 [Compound 5-FU, 5-fluorouracil, reference compound]	22.4 ± 4.1 µM	21.3 ± 4.2 µM	15.4 ± 2.9 µM	22.3 ± 1.7 µM	–	SI OVCAR10 (OVCAR 10): 0.95; IC50 (OVCAR 10; [6]): 22.4 µM; IC50 (1205Lu; [7]): 15.4 µM; SI 1205Lu (1205Lu): 1.38; IC50 (HCT116; [8]): 22.3 µM; SI HCT116 (HCT116): 0.95
